Measurements reported in patent US12077503B2, “Substituted cyclic amides and their use as herbicides” (FMC CORPORATION, priority 2015, dated 2024).

Assays:
Assay type in all cases: in vivo
[1] = system: barnyardgrass (Echinochloa crus-galli); assay: Test G Pre-Emergence Protocol; settings: Echinochloa crus-galli, pre-emergence, 312 h, evaluated after 13 days; for pest or weed control at 15.625 g/ha: 15.625 g ai/ha, read-out: Barnyard grass damage rating (100=total damage to plant; 0=no damage to plant); for pest or weed control at 62.5 g/ha: 62.5 g ai/ha, 100=total damage to plant, 0=no damage to plant, read-out: plant damage rating, Barnyardgrass; for pest or weed control at 250 g/ha: 250 g ai/ha, read-out: Barnyardgrass damage rating (100=total damage to plant; 0=no damage to plant)
Summary of the method: (§1)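 Under a 24/16° C day/night regime with 14 h light and 65% humidity, sown pots were sprayed after one day with compound (15.625, 62.5 or 250 g/ha; 50:50 acetone/water, 0.5% Tween 20). Damage was assessed visually 13 days later, 0 to 100.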

[2] = system: corn (Zea mays); assay: Test G Pre-Emergence Protocol; settings: Zea mays, pre-emergence, 312 h, evaluated after 13 days; for plant injury at 15.625 g/ha: 15.625 g ai/ha; for plant injury at 15.625 g/ha / plant injury at 250 g/ha: read-out: Corn damage rating (100=total damage to plant; 0=no damage to plant); for plant injury at 62.5 g/ha: 62.5 g ai/ha, 100=total damage to plant, 0=no damage to plant, read-out: plant damage rating, Corn; for plant injury at 250 g/ha: 250 g ai/ha
Summary of the method: as §1

[3] = system: giant foxtail (Setaria faberi); assay: Test G Pre-Emergence Protocol; settings: Setaria faberi, pre-emergence, 312 h, evaluated after 13 days; for pest or weed control at 15.625 g/ha: 15.625 g ai/ha; for pest or weed control at 15.625 g/ha / pest or weed control at 250 g/ha: read-out: Foxtail, Giant damage rating (100=total damage to plant; 0=no damage to plant); for pest or weed control at 62.5 g/ha: 62.5 g ai/ha, 100=total damage to plant, 0=no damage to plant, read-out: plant damage rating, Foxtail, Giant; for pest or weed control at 250 g/ha: 250 g ai/ha
Summary of the method: as §1

[4] = system: ivy-leaved morning glory (Ipomoea hederacea); assay: Test G Pre-Emergence Protocol; settings: Ipomoea, pre-emergence, 312 h, evaluated after 13 days; for pest or weed control at 15.625 g/ha: 15.625 g ai/ha, read-out: Morning-glory, Ivy-leaved damage rating (100=total damage to plant; 0=no damage to plant); for pest or weed control at 62.5 g/ha: 62.5 g ai/ha, 100=total damage to plant, 0=no damage to plant, read-out: plant damage rating, Morningglory, Ivy-leaved; for pest or weed control at 250 g/ha: 250 g ai/ha, read-out: Morningglory, Ivy-leaved damage rating (100=total damage to plant; 0=no damage to plant)
Summary of the method: as §1

[5] = system: redroot pigweed (Amaranthus retroflexus); assay: Test G Pre-Emergence Protocol; settings: Amaranthus retroflexus, pre-emergence, 312 h, evaluated after 13 days; for pest or weed control at 15.625 g/ha: 15.625 g ai/ha; for pest or weed control at 15.625 g/ha / pest or weed control at 250 g/ha: read-out: Pigweed, Redroot damage rating (100=total damage to plant; 0=no damage to plant); for pest or weed control at 62.5 g/ha: 62.5 g ai/ha, 100=total damage to plant, 0=no damage to plant, read-out: plant damage rating, Pigweed, Redroot; for pest or weed control at 250 g/ha: 250 g ai/ha
Summary of the method: as §1

[6] = system: velvetleaf (Abutilon theophrasti); assay: Test G Pre-Emergence Protocol; settings: Abutilon theophrasti, pre-emergence, 312 h, evaluated after 13 days; for pest or weed control at 15.625 g/ha: 15.625 g ai/ha; for pest or weed control at 15.625 g/ha / pest or weed control at 250 g/ha: read-out: Velvetleaf damage rating (100=total damage to plant; 0=no damage to plant); for pest or weed control at 62.5 g/ha: 62.5 g ai/ha, 100=total damage to plant, 0=no damage to plant, read-out: plant damage rating, Velvetleaf; for pest or weed control at 250 g/ha: 250 g ai/ha
Summary of the method: as §1

[7] = system: barnyardgrass (Echinochloa crus-galli); assay: Test G Post-Emergence Protocol; settings: Echinochloa crus-galli, post-emergence, 312 h; for pest or weed control at 15.625 g/ha: 15.625 g ai/ha, evaluated after 13 days (100=total damage to plant; 0=no damage to plant), read-out: Barnyardgrass damage rating; for pest or weed control at 62.5 g/ha: 62.5 g ai/ha, read-out: Barnyardgrass damage rating (100=total damage to plant; 0=no damage to plant); for pest or weed control at 62.5 g/ha / pest or weed control at 250 g/ha: evaluated after 13 days; for pest or weed control at 250 g/ha: 250 g ai/ha, read-out: damage to plant, Barnyardgrass (100=total damage to plant; 0=no damage to plant)
Summary of the method: (§2)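 Scores run 0 (no damage) to 100 (total damage) and were taken 13 days after spraying. Plants had been raised in pots for 8 days under glasshouse control (24/16 °C, 14 h photoperiod, 65% humidity) and then treated at 15.625, 62.5 or 250 g/ha.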

[8] = system: corn (Zea mays); assay: Test G Post-Emergence Protocol; settings: Zea mays, post-emergence, 312 h; for plant injury at 15.625 g/ha: 15.625 g ai/ha, evaluated after 13 days (100=total damage to plant; 0=no damage to plant), read-out: Corn damage rating; for plant injury at 62.5 g/ha: 62.5 g ai/ha, read-out: Corn damage rating (100=total damage to plant; 0=no damage to plant); for plant injury at 62.5 g/ha / plant injury at 250 g/ha: evaluated after 13 days; for plant injury at 250 g/ha: 250 g ai/ha, read-out: damage to plant, Corn (100=total damage to plant; 0=no damage to plant)
Summary of the method: as §2

[9] = system: giant foxtail (Setaria faberi); assay: Test G Post-Emergence Protocol; settings: Setaria faberi, post-emergence, 312 h; for pest or weed control at 15.625 g/ha: 15.625 g ai/ha, evaluated after 13 days (100=total damage to plant; 0=no damage to plant), read-out: Foxtail, Giant damage rating; for pest or weed control at 62.5 g/ha: 62.5 g ai/ha, read-out: Foxtail, Giant damage rating (100=total damage to plant; 0=no damage to plant); for pest or weed control at 62.5 g/ha / pest or weed control at 250 g/ha: evaluated after 13 days; for pest or weed control at 250 g/ha: 250 g ai/ha, read-out: damage to plant, Foxtail, Giant (100=total damage to plant; 0=no damage to plant)
Summary of the method: as §2

[10] = system: ivy-leaved morning glory (Ipomoea hederacea); assay: Test G Post-Emergence Protocol; settings: Ipomoea, post-emergence, 312 h; for pest or weed control at 15.625 g/ha: 15.625 g ai/ha, evaluated after 13 days (100=total damage to plant; 0=no damage to plant), read-out: Morningglory, Ivy-leaved damage rating; for pest or weed control at 62.5 g/ha: 62.5 g ai/ha, read-out: Morningglory, Ivy-leaved damage rating (100=total damage to plant; 0=no damage to plant); for pest or weed control at 62.5 g/ha / pest or weed control at 250 g/ha: evaluated after 13 days; for pest or weed control at 250 g/ha: 250 g ai/ha, read-out: damage to plant, Morningglory, Ivy-leaved (100=total damage to plant; 0=no damage to plant)
Summary of the method: as §2

[11] = system: redroot pigweed (Amaranthus retroflexus); assay: Test G Post-Emergence Protocol; settings: Amaranthus retroflexus, post-emergence, 312 h; for pest or weed control at 15.625 g/ha: 15.625 g ai/ha, evaluated after 13 days (100=total damage to plant; 0=no damage to plant), read-out: Pigweed, Redroot damage rating; for pest or weed control at 62.5 g/ha: 62.5 g ai/ha, read-out: Pigweed, Redroot damage rating (100=total damage to plant; 0=no damage to plant); for pest or weed control at 62.5 g/ha / pest or weed control at 250 g/ha: evaluated after 13 days; for pest or weed control at 250 g/ha: 250 g ai/ha, read-out: damage to plant, Pigweed, Redroot (100=total damage to plant; 0=no damage to plant)
Summary of the method: as §2

[12] = system: velvetleaf (Abutilon theophrasti); assay: Test G Post-Emergence Protocol; settings: Abutilon theophrasti, post-emergence, 312 h; for pest or weed control at 15.625 g/ha: 15.625 g ai/ha, evaluated after 13 days (100=total damage to plant; 0=no damage to plant), read-out: Velvetleaf damage rating; for pest or weed control at 62.5 g/ha: 62.5 g ai/ha, read-out: Velvetleaf damage rating (100=total damage to plant; 0=no damage to plant); for pest or weed control at 62.5 g/ha / pest or weed control at 250 g/ha: evaluated after 13 days; for pest or weed control at 250 g/ha: 250 g ai/ha, read-out: damage to plant, Velvetleaf (100=total damage to plant; 0=no damage to plant)
Summary of the method: as §2

Row | SMILES | pest or weed control at 15.625 g/ha [1] [%] | pest or weed control at 62.5 g/ha [1] [%] | pest or weed control at 250 g/ha [1] [%] | plant injury at 15.625 g/ha [2] [%] | plant injury at 62.5 g/ha [2] [%] | plant injury at 250 g/ha [2] [%] | pest or weed control at 15.625 g/ha [3] [%] | pest or weed control at 62.5 g/ha [3] [%] | pest or weed control at 250 g/ha [3] [%] | pest or weed control at 15.625 g/ha [4] [%] | pest or weed control at 62.5 g/ha [4] [%] | pest or weed control at 250 g/ha [4] [%] | pest or weed control at 15.625 g/ha [5] [%] | pest or weed control at 62.5 g/ha [5] [%] | pest or weed control at 250 g/ha [5] [%] | pest or weed control at 15.625 g/ha [6] [%] | pest or weed control at 62.5 g/ha [6] [%] | pest or weed control at 250 g/ha [6] [%] | pest or weed control at 15.625 g/ha [7] [%] | pest or weed control at 62.5 g/ha [7] [%] | other results
1 | Cc1cccc(NC(=O)[C@H]2C(=O)N(C)C[C@@H]2c2ccc(C(F)(F)F)cc2)n1 (racemic) [Compound 1429] | 0 | 40 | 70 | 0 | 0 | 0 | 0 | 70 | 80 | 0 | 0 | 0 | 0 | 0 | 0 | 0 | 0 | 50 | 0 | 10 | pest or weed control at 250 g/ha [7]: 20%; plant injury at 15.625 g/ha [8]: 10%; plant injury at 62.5 g/ha [8]: 0%; plant injury at 250 g/ha [8]: 10%; pest or weed control at 15.625 g/ha [9]: 0%; pest or weed control at 62.5 g/ha [9]: 30%; pest or weed control at 250 g/ha [9]: 40%; pest or weed control at 15.625 g/ha [10]: 0%; pest or weed control at 62.5 g/ha [10]: 10%; pest or weed control at 250 g/ha [10]: 20%; pest or weed control at 15.625 g/ha [11]: 0%; pest or weed control at 62.5 g/ha [11]: 0%; pest or weed control at 250 g/ha [11]: 80%; pest or weed control at 15.625 g/ha [12]: 0%; pest or weed control at 62.5 g/ha [12]: 0%; pest or weed control at 250 g/ha [12]: 30%
2 | CN1C[C@H](c2ccc(C(F)(F)F)cc2)[C@@H](C(=O)Nc2ncccc2[N+](=O)[O-])C1=O (racemic) [Compound 1431] | 0 | 0 | 0 | 0 | 0 | 0 | 0 | 0 | 0 | 0 | 0 | 0 | 0 | 0 | 0 | 0 | 0 | 0 | 0 | 0 | pest or weed control at 250 g/ha [7]: 0%; plant injury at 15.625 g/ha [8]: 0%; plant injury at 62.5 g/ha [8]: 0%; plant injury at 250 g/ha [8]: 0%; pest or weed control at 15.625 g/ha [9]: 0%; pest or weed control at 62.5 g/ha [9]: 0%; pest or weed control at 250 g/ha [9]: 0%; pest or weed control at 15.625 g/ha [10]: 0%; pest or weed control at 62.5 g/ha [10]: 0%; pest or weed control at 250 g/ha [10]: 0%; pest or weed control at 15.625 g/ha [11]: 0%; pest or weed control at 62.5 g/ha [11]: 0%; pest or weed control at 250 g/ha [11]: 40%; pest or weed control at 15.625 g/ha [12]: 0%; pest or weed control at 62.5 g/ha [12]: 0%; pest or weed control at 250 g/ha [12]: 10%
3 | CN1C[C@H](c2ccc(C(F)(F)F)cc2)[C@@H](C(=O)Nc2ccc(Cl)cc2[N+](=O)[O-])C1=O (racemic) [Compound 1432] | 0 | 0 | 0 | 0 | 0 | 0 | 0 | 0 | 0 | 0 | 0 | 0 | 0 | 0 | 0 | 0 | 0 | 0 | 0 | 0 | pest or weed control at 250 g/ha [7]: 0%; plant injury at 15.625 g/ha [8]: 0%; plant injury at 62.5 g/ha [8]: 0%; plant injury at 250 g/ha [8]: 0%; pest or weed control at 15.625 g/ha [9]: 0%; pest or weed control at 62.5 g/ha [9]: 0%; pest or weed control at 250 g/ha [9]: 0%; pest or weed control at 15.625 g/ha [10]: 0%; pest or weed control at 62.5 g/ha [10]: 0%; pest or weed control at 250 g/ha [10]: 0%; pest or weed control at 15.625 g/ha [11]: 0%; pest or weed control at 62.5 g/ha [11]: 0%; pest or weed control at 250 g/ha [11]: 0%; pest or weed control at 15.625 g/ha [12]: 0%; pest or weed control at 62.5 g/ha [12]: 0%; pest or weed control at 250 g/ha [12]: 0%
